# Patent US20090131302A1, “Transient receptor potential vanilloid 1 and uses thereof” (priority 2007, published 2009)
# Legend:
# colon of adult rats = details: 1 ml of 5% into descending colon at 8 weeks; tested after 4 weeks; 50-80 mm Hg; vs saline
# Experimental: For neonatal sensitization, rats were obtained as litters of 4 days old pups. […] To treat neonatal rats with capsaicin, ten day old rat pups received an infusion of 0.2 mls of 50 mg/ml capsaicin or 0.2 mls vehicle: 10% ethanol, 10% Tween 20, 80% saline or were left unmanipulated. Visceral sensitivity and inflammatory parameters were measured in these rats between 8 and 12 weeks of age. […] After 4 weeks, rats were tested for sensitivity to colorectal distention.
# The abdominal withdrawal reflex represents a characteristic set of behaviors produced by involuntary motor reflexes that are activated by colorectal distention. Visceral hypersensitivity was measured by grading the response of rats to colorectal distention as previously described.^11 Briefly, under mild sedation with 1% Brevital (Eli Lily & Co Indianapolis, Ind.) 25 mg/kg i.p.), a flexible balloon (5 cm) constructed from a surgical glove finger attached to a tygon tubing was inserted 8 cm into the descending colon and rectum via the anus and held in place by taping the tubing to the tail. Rats were placed in small Lucite cubicles (20×8×8 cm) (Bioengineering Department, UTMB) and were allowed to adapt for 30 minutes. CRD was performed by rapidly inflating the balloon to constant pressure. Pressure was measured using a sphygmomanometer connected to a pressure transducer. […]
# MAPK = details: pups one hour after infusion
# Experimental: To determine whether acetic acid infusion of the colons of 10 days old pups activated MAPK in DRG containing soma of colon afferents, combined lumbar/sacral (LS) and thoracolumbar (TL) DRG from 4 pups/treatment group were assayed for p-p38 or ERK (p-p42/p-p44) content by western blot 1 hour after acetic acid infusion. Cervical (CE) DRG from the same animals were examined as an internal control for specificity of stimulation.
# colon = details: rat, in vivo
# Experimental: Colons were divided into proximal, middle and distal segments; portions of each segment were placed in 10% buffered formalin and portions were frozen in liquid nitrogen. Haematoxilin & Eosin stained parafin sections were scored for inflammation by a pathologist as described.^21 Myeloperoxidase (MPO) assays were performed as described.^22 Protein was measured by the BCA method (Pierce, Rockford, Ill.). Activity was expressed as the change in absorbance/min/mg protein. Cytokine levels were measured in colon extracts using the Biorad Bioplex assay procedure and normalized to protein.
# To rule out the possibility that the sensitizing effects of neonatal acetic acid exposure were due to inflammation/injury of the colon, the colons of P10 pups were examined.
# To determine whether persistent hypersensitivity achieved in neonatal acetic acid treated rats was due to the development of a chronic colitis in adult, H&E stained sections of the colons of 8 weeks old adult rats were examined for histopathological signs of inflammation, myoloperoxidase (MPO) activity and inflammatory cytokine levels. […] Since mast cells can affect both motility and sensitivity, mast cells in proximal, middle and distal colon were counted.
# colon DRG neurons = test system: colon DRG neurons
# Experimental: To determine whether the sensitivity of colon DRG neurons was altered in eight weeks old rats in this model, action potential threshold (rheobase) and firing frequency of acutely dissociated lumbar/sacral (LS), and thoracolumbar (TL) colon DRG neurons, identified by the presence of the retrograde label DiI, were measured in current clamp experiments.
# TRPV1 = test system: TRPV1
# Experimental: Tissues for western blot or RNA extraction were immediately frozen on dry ice and were stored at −80 until further analysis. Tissues were homogenized in extract buffer; 1% NP40, 10% glycerol, 20 mM Tris HCl […], 100 mM NaCl, 50 mM NaF, 2 mM EDTA, 1 mM EGTA, 25 mM b-glycerophosphate, 2 mM sodium pyrophosphate, 1 mM sodium orthovanadate, 1 mM phenylmethylsulfonyl fluoride and Protease Inhibitor Cocktail, 1/100 (Sigma). Proteins were resolved on 7.5% SDS-PAGE gels, transferred to PVDF membranes (BioRad), and incubated with an anti-TRPV1 antibody (PC420, Invitrogen) at 1/500. Bound antibodies were detected by ECL kit (Amersham Pharmacia Biotech, Piscataway, N.J.). The membranes were exposed to X-ray films and subsequently stripped and re-probed with a b-III-tubulin antibody (1/1000, Promega). Films were converted to TIFF image files using a HP scanner, and the TRPV1 and b-III-tubulin bands were quantified using OptiQuant software (Packard). Data was expressed as the ratio of TRPV1 to b-III-tubulin band intensity.
# RNA was extracted from frozen DRG using Triozol (Invitrogen). Starting with […] of RNA, two-step quantitative RT-PCR was performed using Applied Biosystems reagents and kits. The following forward and reverse primer and probe sequences were used: TRPV1: […] (SEQ ID NO: 2), […] (SEQ ID NO: 3); b-III-tubulin: […] (SEQ ID NO: 4), […] (SEQ ID NO: 5), […] (SEQ ID NO: 6). TAQMAN PCR was performed on an Applied Biosystems 5700. Relative changes in TRPV1 mRNA levels were calculated by the DDCt method using b-III-tubulin as a normalizer. No RT reactions were performed as controls.
# The lipid soluble fluorescent dye, DiI (1,1′-dioleyl-3,3,3′,3-tetramethylindocarbocyanine methanesulfonate, Invitrogen), 25 mg in 0.5 ml methanol, was injected in 2 μl volumes at 8-10 sites on the exposed colon from the level of the bladder to 6 cm oral. After one to two weeks, rats were perfused transcardially with 150 ml phosphate buffered saline (PBS) followed by 400 ml ice cold 4% paraformaldehyde in PBS. Dorsal root ganglia, T12 to S2 were removed and were post-fixed one hour in PFA and cryoprotected overnight in 20% sucrose in PBS. 10 micron sections on plus slides were incubated sequentially with TRPV1 antibody (PC420, Invitrogen, 1/200) and then with anti-rabbit Alexa Fluor 488 (Invitrogen, 1/200). Sections were viewed using a BX60 Olympus microscope equipped with filter cubes appropriate for DiI (Rhodamine filter) and appropriate band pass and barrier filter for Alexa-488. Images were captured and were analyzed using Metaview software. To ensure that a neuron is counted only once, serial sections were placed on consecutive slides with at least 50 microns between sections on the same slide.
# To determine whether TRPV1 expression was altered in adult rats that were sensitized with acetic acid as neonates, TRPV1 expression in DRG containing colon afferents and in the spinal cord was measured.
# TRPV1 and BDNF mRNA expression was measured in S1 DRG isolated from adult rats that were treated with acetic acid or saline as neonates by quantitative RT-PCR. […] To increase the sensitivity and specificity of this gene expression assay, measurements will be made in colon afferent neurons identified by uptake of the retrograde label fluorogold and isolated by laser capture microdissection (LCM) (FIG. 11).
# colon of P10 rats = details: 0.5% into colon at P10, vs saline
# Experimental: To treat neonatal rats with capsaicin, ten day old rat pups received an infusion of 0.2 mls of 50 mg/ml capsaicin or 0.2 mls vehicle: 10% ethanol, 10% Tween 20, 80% saline or were left unmanipulated. Visceral sensitivity and inflammatory parameters were measured in these rats between 8 and 12 weeks of age. […] After 4 weeks, rats were tested for sensitivity to colorectal distention.
# Visceral hypersensitivity was measured by grading the response of rats to colorectal distention as previously described.^11 Briefly, under mild sedation with 1% Brevital (Eli Lily & Co Indianapolis, Ind.) 25 mg/kg i.p.), a flexible balloon (5 cm) constructed from a surgical glove finger attached to a tygon tubing was inserted 8 cm into the descending colon and rectum via the anus and held in place by taping the tubing to the tail. […] Pressure was measured using a sphygmomanometer connected to a pressure transducer. […] Behavioral responses to colorectal distention were measured by visual observation of the abdominal withdrawal reflex by blinded observer and the assignment of an AWR score as follows: 1=Normal behavior without response 2=Contraction of abdominal muscles; 3=Lifting of abdominal wall; 4=Body arching and lifting of pelvic structures. […]
# Data is expressed as mean+/−standard error of the mean (SE).
# [1] = adult rats sensitized as neonates vs controls
# [2] = quantitative RT-PCR, vs P10 saline
structure (smiles),measurement,setting,value
CC(=O)O [acetic acid],AWR grades in response to colorectal distention,colon of adult rats,No significant differences
same,p-p38 in TL or CE DRG,MAPK,No large changes
same,p-p42 in LS DRG,MAPK,no change
same,p-p44 in LS DRG,MAPK,seven-fold increase
same,p-ERK increase in TL DRG,MAPK; also seen with saline,3-5 fold
same,p-p38 in LS DRG,MAPK; vs saline and unmanipulated,three-fold increase
same,"IFN-g in proximal colon, relative to saline",colon,1.5 fold
same,"MPO activity in proximal, middle and distal colon",colon,no significant increases in activity
same,MPO values in colon of pups,colon,not significantly different
same,histology of colon of pups,colon,No histological signs of inflammation or tissue destruction
same,histopathological examination of adult colon,colon,no evidence of inflammation or abnormalities in structure
same,"levels of pro-inflammatory cytokines (IL-1b, IL-1a, IL-2, IL-6, TNF-a, IFN-g)",colon,no significant differences
same,"mast cell counts, distal colon",colon,9.3 SE 4.1 number of mast cells per high-powered field
same,"mast cell counts, middle colon",colon,7.7 SE 1.2 number of mast cells per high-powered field
same,"mast cell counts, proximal colon",colon,6.3 SE 3.4 number of mast cells per high-powered field
same,"average rheobase, TL colon DRG neurons","colon DRG neurons; 8 weeks old rats treated at P10, control 0.47",0.29 nA
same,"average rheobase, LS colon DRG neurons","colon DRG neurons; 8 weeks old rats treated at P10, control 0.56",0.21 nA
same,"number of action potentials elicited by current injection at 2x the rheobase, LS neurons",colon DRG neurons; control 1.2,1.8
same,TRPV1 protein expression in the spinal cord,TRPV1; adult rats sensitized as neonates,No change
same,TRPV1 mRNA in TL DRG,TRPV1; [1],no change
same,TRPV1 mRNA increase in LS DRG,TRPV1; [1],1.9 fold
same,TRPV1 protein expression in whole DRG extracts,"TRPV1; both TL and LS DRG, adult rats sensitized as neonates",significantly increased
same,"colon DRG neurons (DiI) expressing TRPV1 immunoreactivity, LS DRG",TRPV1; control 38.8%,54.0%
same,"colon DRG neurons (DiI) expressing TRPV1 immunoreactivity, TL DRG",TRPV1; control 40.6%,67.3%
same,BDNF mRNA expression increase in S1 DRG,TRPV1; [2],1.9 fold
same,TRPV1 mRNA expression increase in S1 DRG,TRPV1; [2],1.9 fold
same,EMG activity in response to graded colorectal distention,"colon of P10 rats; adult, 40 and 60 mm Hg",significantly higher
same,AWR scores in response to colorectal distention,colon of P10 rats; tested at 8 weeks,higher mean AWR scores at all distention pressures
